From patent US6361788B1, “Synergistic biocide composition” (Thor Chemie GmbH, priority 1997, dated 2002)
“Also recorded” adds a separate entry of the source.

Experiments:
Assay type in all cases: cell-based
[1] = test system: Penicillium funiculosum; experiment: MIC and synergy of MIT and BIT in Sabouraud maltose broth, 96 h; details: for growth of the microorganism: MIT ppm = row head c0; for growth of the microorganism: key: growth of the microorganism took place (symbol '+'); or not (symbol '−')
Experimental: (§1) The synergy index is calculated according to the method of F. C. Kull et al., Applied Microbiology, Vol. 9 (1961), p. 538. Here the synergy index is calculated using the following formula:
(§2) Synergy index SI=Qa/QA+Qb/QB.
The synergy of the two active substances MIT and BIT against the microorganism Penicillium funiculosum is shown as in Example 1.
(§3) The test batches contained a Sabouraud maltose broth as a nutrient medium. The spore concentration was 10^6 per mL. The incubation time was 96 h at 25° C. Each sample was incubated on an incubation shaker at 120 rpm.

[2] = test system: Pseudomonas aeruginosa; experiment: MIC and synergy of MIT and BIT in Müller-Hinton broth, 48 h; details: for growth of the microorganism: MIT ppm = row head c0; for growth of the microorganism: key: growth of the microorganism took place (symbol '+'); or not (symbol '−')
Experimental: as §1, §2
The synergy of the two active substances MIT and BIT against the microorganism Pseudomonas aeruginosa is shown as in Example 1.
The test batches again contained a Müller-Hinton broth as a nutrient medium. The cell density was 10^6 cells/mL. The incubation time was 48 h at 25° C. Each sample was incubated on an incubation shaker at 120 rpm.

[3] = test system: Pseudomonas stutzeri; experiment: MIC and synergy of MIT and BIT in Müller-Hinton broth, 72 h; details: for growth of the microorganism: MIT ppm = row head c0; for growth of the microorganism: key: growth of the microorganism took place (symbol '+'); or not (symbol '−')
Experimental: as §1, §2
The synergy of MIT and BIT against the microorganism Pseudomonas stutzeri is shown as in Example 1.
The test batches again contained a Müller-Hinton broth as a nutrient medium. The cell density was 10^6 cells/mL. The incubation time was 72 h at 25° C. Each sample was incubated on an incubation shaker at 120 rpm.

[4] = test system: standard bacterial inoculum; experiment: Preservation of coating composition B, repeated bacterial inoculation, streak evaluation
Experimental: (§4) The biocides shown in Table XI below were added respectively to 50 g of coating composition A. The stated amounts of biocide refer to the amount of coating composition A. In the MIT/BIT mixtures, the two biocides were present in a weight ratio of 1:1.
(§5) Apart from a blank test without addition of biocide, 1 mL of a standard bacterial inoculum that contained the following bacterial strains was added to each sample of coating composition A:
(§6) The cell density of the inoculum was 10^10 to 3·10^10 cells/mL, and the cell density of the samples was 2·10^8 to 6·10^8 cells/g. The samples were held at 30° C. for 7 days. Then a streak of each sample was produced on a nutrient agar plate, held at 30° C. for 48 h, and then evaluated for bacterial growth. The following evaluation scale was used:
(§7) When the bacterial growth was evaluated as below 6, a second bacterial inoculum of the above-mentioned type was added to the corresponding original 50 g sample and it was again held at 30° C. for 7 days. Then a streak was again produced on a nutrient agar plate, which was again evaluated for its bacterial growth after a holding time of 48 h at 30° C.
(§8) When the bacterial growth of the streak was evaluated as 6 for a sample, the testing of this sample was terminated. As long as a sample had not reached this number, a bacterial inoculum was again added in the above-mentioned manner and the sample was held and tested by means of a streak. This procedure was repeated as necessary, with a maximum of 4 bacterial inocula being added per sample.
Example 9 was repeated, but using coating composition B instead of coating composition A.
Coating composition B is a particularly low-emission plaster based on a polymer dispersion commercially available under the designation “Granol KR 3.0 LF” (company Steinwerke Kupferdreh GmbH).

[5] = test system: standard bacterial inoculum; experiment: Preservation of coating composition A, repeated bacterial inoculation, streak evaluation
Description: Biocide compositions according to the invention were incorporated into a coating composition A that is used for coating building facades. This coating composition is a plaster based on an aqueous polymer dispersion commercially available under the designation “Granol KR 3.0” (company Steinwerke Kupferdreh GmbH). The addition of the biocide composition of the invention served to preserve the coating composition before its use, i.e., while it was stored in its packing drums.
as §4, §5, §6, §7, §8

[6] = test system: Aspergillus niger; experiment: MIC and synergy of MIT and BIT in Sabouraud maltose broth, 96 h; details: for growth of the microorganism: MIT ppm = row head c0; for growth of the microorganism: key: growth of the microorganism took place (symbol '+'); or not (symbol '−')
Experimental: as §1, §2
The synergy of the two active substances MIT and BIT against the microorganism Aspergillus niger is shown as in Example 1.
as §3

[7] = share of the BIT/MIT mixture at MIC, 96 h

O=c1[nH]sc2ccccc12 [BIT, 1,2-benzisothiazolin-3-one]
MIC at Total concentration BIT + MIT Qa + Qb ([1]; 96 h): 200 ppm | Qa/QA ([1]; 96 h): 1.00 | Synergy index Qa/QA + Qb/QB ([1]; 96 h): 1.00 | growth of the microorganism ([1]; BIT 10 ppm, 96 h): + | growth of the microorganism ([1]; BIT 15 ppm, 96 h): + | growth of the microorganism ([1]; BIT 20 ppm, 96 h): + | growth of the microorganism ([1]; BIT 30 ppm, 96 h): + | growth of the microorganism ([1]; BIT 40 ppm, 96 h): − | growth of the microorganism ([1]; BIT 50 ppm, 96 h): − | growth of the microorganism ([1]; BIT 75 ppm, 96 h): − | MIC at BIT concentration Qa [1, 7]: 200 ppm | MIC value ([1]; used alone, 96 h at 25° C.): 40 ppm | MIC at Total concentration BIT + MIT Qa + Qb ([2]; 48 h): 150 ppm | Qa/QA ([2]; 48 h): 1.00 | Synergy index Qa/QA + Qb/QB ([2]; 48 h): 1.00 | growth of the microorganism ([2]; BIT 5 ppm, 48 h): + | growth of the microorganism ([2]; BIT 10 ppm, 48 h): + | growth of the microorganism ([2]; BIT 25 ppm, 48 h): + | growth of the microorganism ([2]; BIT 50 ppm, 48 h): + | growth of the microorganism ([2]; BIT 75 ppm, 48 h): + | growth of the microorganism ([2]; BIT 100 ppm, 48 h): + | growth of the microorganism ([2]; BIT 125 ppm, 48 h): + | growth of the microorganism ([2]; BIT 150 ppm, 48 h): − | growth of the microorganism ([2]; BIT 175 ppm, 48 h): − | growth of the microorganism ([2]; BIT 200 ppm, 48 h): − | MIC at BIT concentration Qa ([2]; BIT share of the BIT/MIT mixture at MIC, 48 h): 150 ppm | MIC value ([2]; used alone, 48 h at 25° C.): 150 ppm | MIC at Total concentration BIT + MIT Qa + Qb ([3]; 72 h): 20 ppm | Qa/QA ([3]; 72 h): 1.00 | Synergy index Qa/QA + Qb/QB ([3]; 72 h): 1.00 | growth of the microorganism ([3]; BIT 0.5 ppm, 72 h): + | growth of the microorganism ([3]; BIT 1 ppm, 72 h): + | growth of the microorganism ([3]; BIT 2.5 ppm, 72 h): + | growth of the microorganism ([3]; BIT 5 ppm, 72 h): + | growth of the microorganism ([3]; BIT 7.5 ppm, 72 h): + | growth of the microorganism ([3]; BIT 10 ppm, 72 h): + | growth of the microorganism ([3]; BIT 15 ppm, 72 h): + | growth of the microorganism ([3]; BIT 20 ppm, 72 h): − | growth of the microorganism ([3]; BIT 25 ppm, 72 h): − | growth of the microorganism ([3]; BIT 30 ppm, 72 h): − | MIC at BIT concentration Qa ([3]; BIT share of the BIT/MIT mixture at MIC, 72 h): 20 ppm | MIC value ([3]; used alone, 72 h at 25° C.): 20 ppm | bacterial attack ([4]; all tested concentrations 0.005-0.03% by wt): complete bacterial attack could be observed after the third inoculation at the latest | Bacterial growth (7 days + 48 h after 4th inoculation) ([4]; biocide 0.005% by wt): (Growth already after 1st inoculation) | Bacterial growth (7 days + 48 h after 4th inoculation) ([4]; biocide 0.01% by wt): (Growth already after #^st inoculation) | Bacterial growth (7 days + 48 h after 4th inoculation) ([4]; biocide 0.015% by wt): (Growth already after 2nd inoculation) | Bacterial growth (7 days + 48 h after 4th inoculation) ([4]; biocide 0.02% by wt): (Growth already after 2nd inoculation) | Bacterial growth (7 days + 48 h after 4th inoculation) ([4]; biocide 0.03% by wt): (Growth already after 3rd inoculation) | Bacterial growth (7 days + 48 h after 4th inoculation) ([5]; biocide 0.005% by wt): full bacterial growth was reached already after the first inoculation; also recorded: (Growth already after 1st inoculation) | Bacterial growth (7 days + 48 h after 4th inoculation) ([5]; biocide 0.01% by wt): (Growth already after 1st inoculation) | Bacterial growth (7 days + 48 h after 4th inoculation) ([5]; biocide 0.015% by wt): after the second inoculation; also recorded: (Growth already after 2nd inoculation) | Bacterial growth (7 days + 48 h after 4th inoculation) ([5]; biocide 0.02% by wt): (Growth already after 2nd inoculation) | Bacterial growth (7 days + 48 h after 4th inoculation) ([5]; biocide 0.03% by wt): after the third inoculation; also recorded: (Growth already after 3rd inoculation) | MIC at Total concentration BIT + MIT Qa + Qb ([6]; 96 h): 750 ppm | Qa/QA ([6]; 96 h): 1.00 | Synergy index Qa/QA + Qb/QB ([6]; 96 h): 1.00 | growth of the microorganism ([6]; BIT 5 ppm, 96 h): + | growth of the microorganism ([6]; BIT 10 ppm, 96 h): + | growth of the microorganism ([6]; BIT 25 ppm, 96 h): + | growth of the microorganism ([6]; BIT 50 ppm, 96 h): + | growth of the microorganism ([6]; BIT 75 ppm, 96 h): + | growth of the microorganism ([6]; BIT 100 ppm, 96 h): − | growth of the microorganism ([6]; BIT 150 ppm, 96 h): − | MIC at BIT concentration Qa [6, 7]: 750 ppm | MIC value ([6]; used alone, 96 h at 25° C.): 100 ppm
